Where no end group is shown, it is not given here.
T1: vascular endothelial (VE) cadherin (human, UniProt P33151 48-784)
T1 sequence (looked up): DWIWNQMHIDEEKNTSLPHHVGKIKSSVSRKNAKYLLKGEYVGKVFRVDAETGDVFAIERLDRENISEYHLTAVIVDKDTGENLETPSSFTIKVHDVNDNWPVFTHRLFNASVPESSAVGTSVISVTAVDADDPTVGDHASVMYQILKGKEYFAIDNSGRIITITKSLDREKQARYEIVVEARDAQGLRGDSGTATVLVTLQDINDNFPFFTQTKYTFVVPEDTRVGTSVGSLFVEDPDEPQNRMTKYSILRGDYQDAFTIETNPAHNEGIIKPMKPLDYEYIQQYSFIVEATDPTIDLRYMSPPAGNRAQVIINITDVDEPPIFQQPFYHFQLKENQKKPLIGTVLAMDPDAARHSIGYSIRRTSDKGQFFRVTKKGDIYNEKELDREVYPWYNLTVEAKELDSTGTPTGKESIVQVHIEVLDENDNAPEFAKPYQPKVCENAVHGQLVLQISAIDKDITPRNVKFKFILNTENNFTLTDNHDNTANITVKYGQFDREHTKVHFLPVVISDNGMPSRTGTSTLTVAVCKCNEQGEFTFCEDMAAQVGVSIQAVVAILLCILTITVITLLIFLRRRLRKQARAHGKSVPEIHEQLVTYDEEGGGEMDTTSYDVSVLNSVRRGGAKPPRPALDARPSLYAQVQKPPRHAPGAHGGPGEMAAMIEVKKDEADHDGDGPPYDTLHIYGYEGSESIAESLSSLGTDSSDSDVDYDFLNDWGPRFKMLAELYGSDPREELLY


What was measured:
RhoA = assay: thrombin induced RhoA activation in HUVEC culture (active RhoA pull-down, blot); format: cell-based, human; details: 5 U/ml thrombin alone, 5 min
Procedure: The biological effect of the compounds was established in a model thrombin induced RhoA activation in human umbilical vein endothelial cell (HUVEC) culture.
HUVEC are grown to confluence under standard conditions. Before induction of Rho activity HUVEC were starved for 4 h by using IMDM (Gibco) without growth factor and serum supplements. After the starvation period 5 U/ml Thrombin (Calbiochem) or 5 U thrombin plus 50 μg/ml of test compound are added to the starvation medium for 1, 5 and 10 min. Active RhoA was isolated using Rho Assay Reagent from Upstate according to manufactures instructions. Isolates were separated on a 15% polyacrylamid gel and blotted on Nitrocellulose-Membrane (Bio-Rad). RhoA was dedected by using Anti-Rho (-A, -B, -C), clone55 from Upstate (1:500).

[1] = biological target: T1, vascular endothelial (VE) cadherin; assay: cell-based or functional assay

Molecule	Relative RhoA stimulation compared to unstimulated control (RhoA)	Relative RhoA stimulation compared to unstimulated control (thrombin-induced RhoA activation in HUVEC, Rho pull-down and blot; thrombin alone 5 min = 2.6) [1]
thrombin	2.6	
GHRPLAPSLRPAPPPISGGGYR-OH [Gly-His-Arg-Pro-Leu-Ala-Pro-Ser-Leu-Arg-Pro-Ala-Pro-Pro-Pro-Ile-Ser-Gly-Gly-Gly-Tyr-Arg-OH]		1.2 fold relative to unstimulated control

From patent publication US20090286740A1, “PEPTIDES AND DERIVATIVES THEREOF, THE MANUFACTURING THEREOF AS WELL AS THEIR USE FOR PREPARING A THERAPEUTICALLY AND/OR PREVENTIVELY ACTIVE PHARMACEUTICAL COMPOSITION” (FIBREX MEDICAL RESEARCH & DEVELOPMENT GMBH, priority 2008, published 2009)
